Reference: patent publication US20110190280A1, “Thiazole And Oxazole Kinase Inhibitors” (priority 2007, published 2011)

Key:
SK-MEL-28 tumor cells = experiment: Cell growth inhibition assay (CellTiter-Glo), SK-MEL-28; settings: Homo sapiens, SK-MEL-28, 72 h, read-out: Activity in SK-MEL-28 Tumor Cells;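 also: luminescent total ATP as a proxy for cell number, threefold serial dilutions at 0.2% DMSO, percent growth inhibition versus DMSO vehicle control wells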
Colo205 tumor cells = experiment: Cell growth inhibition assay (CellTiter-Glo), Colo205; settings: Homo sapiens, COLO 205, 72 h, read-out: Activity in Colo205 Tumor Cells;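 also: growth measured via total ATP luminescence (CellTiter-Glo) as a proxy for cell number, inhibition expressed against DMSO-treated control wells, 3-day exposure at 0.2% final DMSO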
Experimental: Cell Growth Inhibition Assays Human colon tumor cells (Colo205) were cultured in RPMI (Mediatech 50-020-PB) containing 10% FBS and 1% penicillin-streptomycin. […] Human melanoma cancer cells (A375-F11S) were cultured in RPMI (Mediatech 50-020-PB) containing 10% FBS, 1% sodium pyruvate, and 1% penicillin-streptomycin. Human colon cancer cells (HT-29) were cultured in high glucose DMEM (Mediatech 50-013-PB) containing 10% FBS and 1% penicillin-streptomycin. Human melanoma cancer cells (SK-MEL-3) were cultured in McCoy's 5A (50-025-PB) containing 15% FBS, and 1% penicillin-streptomycin. All cell lines were maintained at 37° C. in a humidified 5% CO2, 95% air incubator.
The next day, compounds were diluted as follows: For 96-well assays, 13.5 μl of compound in DMSO were diluted using nine (9) serial 1:3 dilutions of 4.5 μl in 9 μl of DMSO. Medium (270 μl/well of RPMI with 10% FBS and 1% penicillin-streptomycin) was added to the plates. Aliquots (7 μl) were added to cells in the final assay giving a final DMSO concentration of 0.2%. For 384-well assays, 15 μl of compound in DMSO were diluted using nine (9) serial 1:3 dilutions of 5 μl in 10 μl of DMSO, followed by a further dilution of 5 μl of compound with 95 μl of medium, of which 2 μl are added to cells in the final assay giving a final DMSO concentration of 0.2%. Cells were incubated at 37° C., 5% CO2 for 3 days.
Total ATP was measured (as a surrogate estimate of cell number) using CellTiter-Glo® (Promega G7571) reagent. Briefly, plates were removed from the incubator and allowed to equilibrate to room temperature for 30 minutes. CellTiter-Glo® (25 μl or 55 μl for 384-well or 96-well assays, respectively) reagent was added to each well and plates were shaken on an orbital plate shaker for 2 minutes. Plates were incubated without shaking for a further 30 minutes and read on an LJL Analyst GT reader in luminometer mode with an integration time of 0.5 seconds per well. Percent inhibition of cell growth was calculated relative to DMSO vehicle-treated control wells.

B-Raf = B-Raf (Homo sapiens, UniProt P15056); experiment: B-Raf Accelerated MEK ATPase assay (BRAMA); assay type: biochemical; settings: BRAMA enzyme assay; class by pIC50; read-out: B-Raf Activity
Experimental: Compounds of the present invention were tested for B-Raf […] inhibitory activity in a B-Raf Accelerated MEK ATPase assay (BRAMA). The BRAMA assay is a high sensitivity assay which measures an intrinsic MEK-mediated ATP hydrolysis uncoupled from downstream ERK phosphorylation by coupling the formation of ADP to NADH oxidation through the enzymes pyruvate kinase and lactate dehydrogenase. When ADP production is initiated by addition of catalytic amounts of an activated RAF enzyme and non-phosphorylated MEK, one observes robust ADP production concomitant with RAF-mediated phosphorylation of MEK. Specific details of the assay are disclosed in: C. Rominger, M. Schaber, E. May. Assay for B-Raf Activity Based on Intrinsic MEK ATPase Activity.

B-Raf, sequence (P15056 whole entry): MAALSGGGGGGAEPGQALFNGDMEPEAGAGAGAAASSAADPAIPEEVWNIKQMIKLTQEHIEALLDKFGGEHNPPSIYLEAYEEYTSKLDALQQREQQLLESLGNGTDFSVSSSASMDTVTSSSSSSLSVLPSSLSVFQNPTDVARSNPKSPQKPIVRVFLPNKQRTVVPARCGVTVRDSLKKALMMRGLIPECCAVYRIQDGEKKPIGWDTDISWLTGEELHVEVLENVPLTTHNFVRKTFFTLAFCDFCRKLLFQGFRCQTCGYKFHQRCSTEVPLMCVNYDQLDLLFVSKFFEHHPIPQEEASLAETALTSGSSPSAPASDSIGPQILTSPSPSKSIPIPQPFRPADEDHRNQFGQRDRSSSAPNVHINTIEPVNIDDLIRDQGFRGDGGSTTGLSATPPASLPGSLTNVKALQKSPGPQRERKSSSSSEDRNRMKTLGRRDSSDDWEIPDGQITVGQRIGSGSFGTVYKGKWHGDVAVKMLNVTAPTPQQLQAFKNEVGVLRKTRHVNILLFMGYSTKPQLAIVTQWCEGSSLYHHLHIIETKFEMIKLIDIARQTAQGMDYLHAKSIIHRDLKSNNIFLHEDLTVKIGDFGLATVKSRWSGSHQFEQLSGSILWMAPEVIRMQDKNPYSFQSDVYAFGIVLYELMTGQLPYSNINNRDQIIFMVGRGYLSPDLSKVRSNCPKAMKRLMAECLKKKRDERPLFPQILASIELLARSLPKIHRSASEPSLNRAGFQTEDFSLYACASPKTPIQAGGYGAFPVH

SMILES | IC50 (SK-MEL-28 tumor cells) [nM] | IC50 (Colo205 tumor cells) [nM] | IC50 (B-Raf) [nM]
CCNc1nc(-c2cc(OC)cc(OC)c2)c(-c2ccnc(Nc3ccc(N4CCN(C(=O)OCC)CC4)nc3)n2)o1 [Example 121] | > 5000 | > 5000 | < 100
CCNc1nc(-c2cc(O)ccn2)c(-c2ccnc(Nc3ccc(OCCN4CCCC4)c(Cl)c3)n2)s1 [Example 97] | > 5000 | > 5000 | 100 to 1000
CCc1nc(-c2ccc3cc[nH]c3c2)c(-c2ccnc(Nc3ccc(OC4CCN(CCS(C)(=O)=O)CC4)c(F)c3)n2)s1 [Example 68, 4-[2-Ethyl-4-(1H-indol-6-yl)-1,3-thiazol-5-yl]-N-[3-fluoro-4-({1-[2-(methylsulfonyl)ethyl]-4-piperidinyl}oxy)phenyl]-2-pyrimidinamine] | 500 to 5000 | 500 to 5000 | < 100
CCNc1nc(-c2cc(C)cc(OC)c2)c(-c2ccnc(Nc3ccc(N4CCN5CCCCC5C4)c(F)c3)n2)s1 (stereo not shown) [Example 114] | 500 to 5000 | 500 to 5000 | < 100
CCNc1nc(-c2cc(OC)cc(OC)c2)c(-c2ccnc(Nc3ccc(N4CCN(C)CC4)c(Cl)c3)n2)o1 [Example 69, 4-[4-[3,5-Bis(methyloxy)phenyl]-2-(ethylamino)-1,3-oxazol-5-yl]-N-[3-chloro-4-(4-methyl-1-piperazinyl)phenyl]-2-pyrimidinamine] | 500 to 5000 | < 500 | < 100
CCNc1nc(-c2cc(OC)cc(OC)c2)c(-c2ccnc(Nc3cc(F)c(OC4CCN(CCF)CC4)c(F)c3)n2)o1 [Example 93] | 500 to 5000 | 500 to 5000 | < 100
CCNc1nc(-c2cccc(OC)c2F)c(-c2ccnc(Nc3ccc(OC4CCN(CCS(C)(=O)=O)CC4)c(F)c3)n2)s1 [Example 48, 4-{2-(Ethylamino)-4-[2-fluoro-3-(methyloxy)phenyl]-1,3-thiazol-5-yl}-N-[3-fluoro-4-({1-[2-(methylsulfonyl)ethyl]-4-piperidinyl}oxy)phenyl]-2-pyrimidinamine] | < 500 | < 500 | < 100
CCc1nc(-c2cc(C)cc(OC)c2)c(-c2ccnc(Nc3ccc(N4CCN5CCOC[C@H]5C4)nc3)n2)s1 [Example 80] | > 5000 | > 5000 | < 100
CCNc1nc(-c2cc(OC)cc(OC)c2)c(-c2ccnc(Nc3ccc(N4CCN5CCCCC5C4)c(F)c3)n2)o1 (stereo not shown) [Example 134] | 500 to 5000 | 500 to 5000 | < 100
CCNc1nc(-c2cc(C)cc(OC)c2)c(-c2ccnc(Nc3ccc(N4CCN(C(C)=O)CC4)nc3)n2)o1 [Example 100] | < 500 | < 500 | < 100
CCNc1nc(-c2cc(OC)cc(OC)c2)c(-c2ccnc(Nc3ccc(OC4CCN(CCF)CC4)c(C)c3)n2)o1 [Example 88] | 500 to 5000 | 500 to 5000 | < 100
COc1cc(OC)cc(-c2nc(N)oc2-c2ccnc(Nc3ccc(OC4CCN(CCS(C)(=O)=O)CC4)c(F)c3)n2)c1 [Example 75, 4-{2-Amino-4-[3,5-bis(methyloxy)phenyl]-1,3-oxazol-5-yl}-N-[3-fluoro-4-({1-[2-(methylsulfonyl)ethyl]-4-piperidinyl}oxy)phenyl]-2-pyrimidinamine] | 500 to 5000 | 500 to 5000 | < 100
CCNc1nc(-c2ccc(C)c(OC)c2)c(-c2ccnc(Nc3ccc(OCCN4CCCC4)c(C#N)c3)n2)s1 [Example 50, 5-[(4-{2-(Ethylamino)-4-[4-methyl-3-(methyloxy)phenyl]-1,3-thiazol-5-yl}-2-pyrimidinyl)amino]-2-{[2-(1-pyrrolidinyl)ethyl]oxy}benzonitrile] | 500 to 5000 | < 500 | < 100
CCNc1nc(-c2cc(C)cc(OC)c2)c(-c2ccnc(Nc3ccc(N4CCN(CCOC)CC4)c(C(=O)O)c3)n2)o1 [Example 130] | 500 to 5000 | 500 to 5000 | < 100
CCc1nc(-c2cc(OC)cc(OC)c2)c(-c2ccnc(Nc3ccc(N4CCN(C)CC4)c(F)c3)n2)o1 [Example 85] | 500 to 5000 | 500 to 5000 | < 100
COc1cccc(-c2nc(C(C)C)sc2-c2ccnc(Nc3ccc(NCCN4CCCC4)cc3)n2)c1 [Example 76, N-(4-{2-(1-Methylethyl)-4-[3-(methyloxy)phenyl]-1,3-thiazol-5-yl}-2-pyrimidinyl)-N′-[2-(1-pyrrolidinyl)ethyl]-1,4-benzenediamine] | 500 to 5000 | 500 to 5000 | < 100
COc1cccc(-c2nc(CF)sc2-c2ccnc(Nc3ccc(OCCN4CCCC4)c(F)c3)n2)c1 [Example 73, 4-{2-(Fluoromethyl)-4-[3-(methyloxy)phenyl]-1,3-thiazol-5-yl}-N-(3-fluoro-4-{[2-(1-pyrrolidinyl)ethyl]oxy}phenyl)-2-pyrimidinamine] | 500 to 5000 | 500 to 5000 | < 100
COc1cc(OC)cc(-c2nc(C)oc2-c2ccnc(Nc3ccc(N4CCN(C)CC4)c(F)c3)n2)c1 [Example 84] | 500 to 5000 | 500 to 5000 | < 100
CCNc1nc(-c2ccnc(O)c2)c(-c2ccnc(Nc3ccc(N4CCS(=O)(=O)CC4)nc3)n2)s1 [Example 79] | > 5000 | > 5000 | < 100
CCNc1nc(-c2cc(C)cc(OCC)c2)c(-c2ccnc(Nc3ccc(N4CCN(C)CC4)c(F)c3)n2)s1 [Example 39, 4-{2-(Ethylamino)-4-[3-(ethyloxy)-5-methylphenyl]-1,3-thiazol-5-yl}-N-[3-fluoro-4-(4-methyl-1-piperazinyl)phenyl]-2-pyrimidinamine] | – | – | < 100
COc1cc(OC)cc(-c2nc(N(C)C)sc2-c2ccnc(Nc3ccc(OC4CCN(CCS(C)(=O)=O)CC4)c(F)c3)n2)c1 [Example 24, 4-[4-[3,5-bis(methyloxy)phenyl]-2-(dimethylamino)-1,3-thiazol-5-yl]-N-[3-fluoro-4-({1-[2-(methylsulfonyl)ethyl]-4-piperidinyl}oxy)phenyl]-2-pyrimidinamine] | 500 to 5000 | < 500 | < 100
CCNc1nc(-c2cc(C)cc(OC)c2)c(-c2ccnc(Nc3ccc(N4CCOCC4)c(F)c3)n2)o1 [Example 101] | 500 to 5000 | < 500 | < 100
COc1cc(OC)cc(-c2nc(N)oc2-c2ccnc(Nc3ccc(N4CCN(C)CC4)c(F)c3)n2)c1 [Example 86] | 500 to 5000 | 500 to 5000 | < 100
CCNc1nc(-c2ccnc(OC)c2)c(-c2ccnc(Nc3ccc(N4CCN(C)CC4)c(F)c3)n2)s1 [Example 111] | > 5000 | 500 to 5000 | < 100
CCNc1nc(-c2cc(OC)cc(OC)c2)c(-c2ccnc(Nc3ccc4c(c3)N(C(C)=O)CC4)n2)o1 [Example 122] | 500 to 5000 | 500 to 5000 | < 100
CCNc1nc(-c2cc(OC)cc(OC)c2)c(-c2ccnc(Nc3ccc(CCN4CCOCC4)cc3)n2)o1 [Example 123] | > 5000 | 500 to 5000 | < 100
COc1cc(OC)cc(-c2nc(C)oc2-c2ccnc(Nc3ccc(OC4CCN(CCS(C)(=O)=O)CC4)c(F)c3)n2)c1 [Example 83] | > 5000 | 500 to 5000 | 100 to 1000
